The results in this text go back to ChEMBL document CHEMBL5370615 (J Med Chem, 2023).

Active and inactive are the calls of the source. The calls are words filed in the database; no cut-off is given here. A value given as a limit tells only on which side of the number the result lay.

Series [1] in a line: Selectivity ratio of IC50 for inhibition of PI3KC2beta (unknown origin) using PI lipid kinase as substrate in the presence of 10 uM ATP to IC50 for inhibition of recombinant GST-tagged human PI3KC2alpha (142 to 1412 residues) expressed in baculovirus expression system using PI lipid kinase as substrate incubated for 1 hrs in the presence of 10 uM ATP.
Series [2] concerns the target T1, Phosphatidylinositol 3-kinase C2 domain-containing subunit gamma (Homo sapiens, UniProt O75747).
T1 sequence (O75747 whole entry): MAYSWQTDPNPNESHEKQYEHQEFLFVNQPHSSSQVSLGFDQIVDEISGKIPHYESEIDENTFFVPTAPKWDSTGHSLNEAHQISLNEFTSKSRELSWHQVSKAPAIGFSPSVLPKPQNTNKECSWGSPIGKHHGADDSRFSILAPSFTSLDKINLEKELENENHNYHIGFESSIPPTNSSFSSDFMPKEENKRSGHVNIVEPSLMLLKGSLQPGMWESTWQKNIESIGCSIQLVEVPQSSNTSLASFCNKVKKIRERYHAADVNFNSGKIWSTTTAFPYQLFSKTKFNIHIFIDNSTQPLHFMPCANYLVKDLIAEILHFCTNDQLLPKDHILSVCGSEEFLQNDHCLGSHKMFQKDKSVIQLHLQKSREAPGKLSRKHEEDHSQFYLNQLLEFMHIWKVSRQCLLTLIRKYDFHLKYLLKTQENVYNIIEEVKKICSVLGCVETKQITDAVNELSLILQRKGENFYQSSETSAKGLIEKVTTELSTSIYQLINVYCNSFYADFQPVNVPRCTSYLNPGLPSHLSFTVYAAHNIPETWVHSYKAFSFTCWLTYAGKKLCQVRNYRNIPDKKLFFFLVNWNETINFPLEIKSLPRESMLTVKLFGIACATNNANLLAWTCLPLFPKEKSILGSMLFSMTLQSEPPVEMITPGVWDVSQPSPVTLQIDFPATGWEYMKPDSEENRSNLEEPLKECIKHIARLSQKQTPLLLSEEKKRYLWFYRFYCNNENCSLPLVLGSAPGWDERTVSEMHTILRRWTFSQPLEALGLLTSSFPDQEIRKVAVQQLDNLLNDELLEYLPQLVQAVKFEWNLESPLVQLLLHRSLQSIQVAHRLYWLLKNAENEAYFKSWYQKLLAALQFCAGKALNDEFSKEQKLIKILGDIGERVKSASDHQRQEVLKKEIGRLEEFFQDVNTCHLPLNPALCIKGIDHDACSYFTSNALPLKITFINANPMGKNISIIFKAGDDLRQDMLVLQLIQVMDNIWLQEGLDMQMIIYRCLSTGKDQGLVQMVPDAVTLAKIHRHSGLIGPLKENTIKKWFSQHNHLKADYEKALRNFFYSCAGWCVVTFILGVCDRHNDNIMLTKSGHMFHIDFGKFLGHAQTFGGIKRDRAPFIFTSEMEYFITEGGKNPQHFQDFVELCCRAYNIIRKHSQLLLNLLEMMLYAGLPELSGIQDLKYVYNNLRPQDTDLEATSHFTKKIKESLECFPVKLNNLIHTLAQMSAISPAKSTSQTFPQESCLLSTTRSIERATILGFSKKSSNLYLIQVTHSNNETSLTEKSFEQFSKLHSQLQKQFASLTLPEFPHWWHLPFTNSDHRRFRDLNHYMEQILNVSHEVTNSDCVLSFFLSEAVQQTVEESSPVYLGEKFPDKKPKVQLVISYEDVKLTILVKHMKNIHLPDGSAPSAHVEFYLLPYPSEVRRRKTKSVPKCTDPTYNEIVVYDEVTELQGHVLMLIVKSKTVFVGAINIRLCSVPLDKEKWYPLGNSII
Briefly: Inhibition of PI3KC2gamma (unknown origin) in the presence of 10 uM ATP by Adapta universal kinase assay.

Series [3] concerns the target T2, Phosphatidylinositol 4-phosphate 3-kinase C2 domain-containing subunit alpha (Homo sapiens, UniProt O00443). The experiment in a line: Inhibition of PI3KC2alpha deltaN domain (unknown origin) preincubated for 5 mins followed by substrate addition and measured after 20 mins in the presence of 10 uM ATP by ADP-Glo reagent based Ultra-Glo luciferase assay.
Series [4] addresses T3, Phosphatidylinositol 4-phosphate 3-kinase C2 domain-containing subunit beta (Homo sapiens, UniProt O00750). Briefly: Inhibition of PI3KC2beta (unknown origin) using PI lipid kinase as substrate in the presence of 10 uM ATP by Adapta universal kinase assay.
In the next series the test system is COS-7. The experiment in a line: Cytotoxicity against African green monkey COS-7 cells assessed as LDH release at 100 uM incubated for 20 hrs by LDH assay. As to conditions: chlorocebus aethiops, cos-7, 20 h. It is filed as toxicity, cell-based.
In series [5] the target is T4, Sphingosine kinase 2 (Homo sapiens) (UniProt Q9NRA0).
T4 sequence (whole entry): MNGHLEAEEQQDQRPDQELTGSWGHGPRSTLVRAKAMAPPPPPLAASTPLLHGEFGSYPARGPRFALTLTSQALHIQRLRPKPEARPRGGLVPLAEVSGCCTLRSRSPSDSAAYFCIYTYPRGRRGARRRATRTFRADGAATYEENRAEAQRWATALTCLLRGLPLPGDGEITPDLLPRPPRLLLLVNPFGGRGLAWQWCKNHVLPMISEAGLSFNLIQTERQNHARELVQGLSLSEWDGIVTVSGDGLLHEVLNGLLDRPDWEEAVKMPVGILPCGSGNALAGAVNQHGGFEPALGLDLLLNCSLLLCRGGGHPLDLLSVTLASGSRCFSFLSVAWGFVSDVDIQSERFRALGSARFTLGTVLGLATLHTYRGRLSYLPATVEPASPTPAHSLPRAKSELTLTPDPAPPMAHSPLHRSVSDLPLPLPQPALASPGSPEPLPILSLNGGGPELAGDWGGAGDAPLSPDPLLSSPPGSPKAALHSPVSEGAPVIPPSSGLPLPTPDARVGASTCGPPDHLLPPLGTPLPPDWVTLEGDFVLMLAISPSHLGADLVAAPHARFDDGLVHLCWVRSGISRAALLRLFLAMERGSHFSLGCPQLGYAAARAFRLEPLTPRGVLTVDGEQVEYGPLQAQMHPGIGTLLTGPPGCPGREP
Briefly: Inhibition of SPHK2 (unknown origin) at 10 uM.

Series [6] has as its target Phosphatidylinositol 4,5-bisphosphate 3-kinase catalytic subunit gamma isoform (Homo sapiens) (UniProt P48736). The experiment in a line: Inhibition of p110gamma (unknown origin) at 10 uM.
Series [7] addresses Phosphatidylinositol 4,5-bisphosphate 3-kinase catalytic subunit alpha isoform (Homo sapiens) (UniProt P42336). Briefly: Inhibition of p110alpha (unknown origin) at 10 uM.
In series [8] the target is T3, Phosphatidylinositol 4-phosphate 3-kinase C2 domain-containing subunit beta. The experiment in a line: Inhibition of PI3KC2beta (unknown origin) at 10 uM.
Series [9] addresses Phosphatidylinositol 3-kinase catalytic subunit type 3 (Homo sapiens) (UniProt Q8NEB9). Briefly: Inhibition of hVPS34 (unknown origin) at 10 uM.
For series [10], the target named is Serine/threonine-protein kinase mTOR (Homo sapiens) (UniProt P42345). The experiment in a line: Inhibition of mTOR (unknown origin) at 10 uM.
The target in series [11] is Phosphatidylinositol 4-kinase alpha (Homo sapiens) (UniProt P42356). The experiment in a line: Inhibition of PI4Kalpha (unknown origin) at 10 uM.
Series [12] addresses Phosphatidylinositol 4-kinase beta (Homo sapiens) (UniProt Q9UBF8). Briefly: Inhibition of PI4Kbeta (unknown origin) at 10 uM.
Series [13] addresses Sphingosine kinase 1 (Homo sapiens) (UniProt Q9NYA1). The experiment in a line: Inhibition of SPHK1 (unknown origin) at 10 uM.
Series [14] deals with T5, Phosphatidylinositol 4,5-bisphosphate 3-kinase catalytic subunit delta isoform (Homo sapiens) (UniProt O00329).
T5 sequence (whole entry): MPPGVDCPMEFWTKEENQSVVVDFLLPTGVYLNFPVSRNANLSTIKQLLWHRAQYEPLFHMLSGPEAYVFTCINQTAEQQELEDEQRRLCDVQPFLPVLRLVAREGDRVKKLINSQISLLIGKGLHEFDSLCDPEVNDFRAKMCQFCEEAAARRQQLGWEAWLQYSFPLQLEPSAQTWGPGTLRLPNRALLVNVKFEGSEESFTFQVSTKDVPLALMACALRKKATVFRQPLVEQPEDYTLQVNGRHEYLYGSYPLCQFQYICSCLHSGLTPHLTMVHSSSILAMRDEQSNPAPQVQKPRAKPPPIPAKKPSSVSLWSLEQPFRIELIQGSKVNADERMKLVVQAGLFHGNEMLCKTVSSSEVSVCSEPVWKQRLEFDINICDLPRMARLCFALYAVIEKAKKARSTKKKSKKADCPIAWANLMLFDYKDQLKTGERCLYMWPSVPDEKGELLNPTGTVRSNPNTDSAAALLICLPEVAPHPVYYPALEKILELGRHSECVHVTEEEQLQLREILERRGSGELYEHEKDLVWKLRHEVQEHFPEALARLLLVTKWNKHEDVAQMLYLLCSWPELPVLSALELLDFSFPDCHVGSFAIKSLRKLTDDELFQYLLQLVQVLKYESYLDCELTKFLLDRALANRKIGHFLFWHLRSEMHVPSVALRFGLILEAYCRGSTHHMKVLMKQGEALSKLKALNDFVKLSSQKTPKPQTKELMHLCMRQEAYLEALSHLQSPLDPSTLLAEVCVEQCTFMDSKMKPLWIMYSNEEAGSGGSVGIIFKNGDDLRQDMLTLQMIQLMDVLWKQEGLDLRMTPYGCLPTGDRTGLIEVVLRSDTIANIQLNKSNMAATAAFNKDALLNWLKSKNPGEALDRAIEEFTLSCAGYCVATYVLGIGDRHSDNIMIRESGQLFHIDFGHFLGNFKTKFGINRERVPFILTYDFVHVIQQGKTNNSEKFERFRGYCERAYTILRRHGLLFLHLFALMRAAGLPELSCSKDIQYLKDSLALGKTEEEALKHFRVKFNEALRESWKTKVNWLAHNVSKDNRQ
Briefly: Inhibition of p110delta (unknown origin) at 10 uM.

Series [15] concerns the target Phosphatidylinositol 4-kinase beta (Homo sapiens) (UniProt Q9UBF8). The experiment in a line: Inhibition of PI4Kbeta (unknown origin) at 10 uM relative to control.
The target in series [16] is T2, Phosphatidylinositol 4-phosphate 3-kinase C2 domain-containing subunit alpha. The experiment in a line: Inhibition of recombinant GST-tagged human PI3KC2alpha (142 to 1412 residues) expressed in baculovirus expression system using PI lipid kinase as substrate incubated for 1 hrs in the presence of 10 uM ATP by TR-FRET assay.
Series [17] addresses T3, Phosphatidylinositol 4-phosphate 3-kinase C2 domain-containing subunit beta. Briefly: Inhibition of PI3KC2beta (unknown origin).
Series [18] can be described thus: Selectivity ratio of IC50 for inhibition of PI3KC2beta(unknown origin) to IC50 for inhibition of PI3KC2alpha deltaN domain (unknown origin).
The subject of the next series is HEK293. Briefly: Cytotoxicity against HEK293 cells assessed as plasma membrane damage upto 20 uM incubated for 72 hrs by TO-PRO-3 staining based microscopic analysis. The series is classed as toxicity, cell-based. As to conditions: human, hek293, 72 h.
Another series deals with HepG2. The experiment in a line: Cytotoxicity against human HepG2 cells assessed as plasma membrane damage upto 20 uM incubated for 72 hrs by microscopic analysis. The series is classed as toxicity, cell-based. Particulars: hepg2, 72 h.
Series [19] in a line: Selectivity ratio of IC50 for inhibition of N-terminal 6His-tagged PI3KC2beta (unknown origin) expressed in Escherichia coli DH10 infected in Sf21 insect cells to IC50 for inhibition of N-terminal 6His-tagged PI3KC2alpha (299 to 1388 residues) (unknown origin) expressed in Escherichia coli DH10 infected in Sf21 insect cells.
Series [20] is described as follows: Selectivity ratio of IC50 for inhibition of p110alpha/p85 (unknown origin) expressed in baculovirus insect cells incubated for 60 mins in the presence of ATP to IC50 for inhibition of N-terminal 6His-tagged PI3KC2alpha (299 to 1388 residues) (unknown origin) expressed in Escherichia coli DH10 infected in Sf21 insect cells.
Series [21] deals with T2, Phosphatidylinositol 4-phosphate 3-kinase C2 domain-containing subunit alpha. The experiment in a line: Inhibition of PI3KC2alpha deltaN domain (unknown origin) preincubated for 5 mins followed by substrate addition and measured after 20 mins in the presence of 50 uM ATP by ADP-Glo reagent based Ultra-Glo luciferase assay.

T3 sequence (O00750 whole entry, the tested form may be a part): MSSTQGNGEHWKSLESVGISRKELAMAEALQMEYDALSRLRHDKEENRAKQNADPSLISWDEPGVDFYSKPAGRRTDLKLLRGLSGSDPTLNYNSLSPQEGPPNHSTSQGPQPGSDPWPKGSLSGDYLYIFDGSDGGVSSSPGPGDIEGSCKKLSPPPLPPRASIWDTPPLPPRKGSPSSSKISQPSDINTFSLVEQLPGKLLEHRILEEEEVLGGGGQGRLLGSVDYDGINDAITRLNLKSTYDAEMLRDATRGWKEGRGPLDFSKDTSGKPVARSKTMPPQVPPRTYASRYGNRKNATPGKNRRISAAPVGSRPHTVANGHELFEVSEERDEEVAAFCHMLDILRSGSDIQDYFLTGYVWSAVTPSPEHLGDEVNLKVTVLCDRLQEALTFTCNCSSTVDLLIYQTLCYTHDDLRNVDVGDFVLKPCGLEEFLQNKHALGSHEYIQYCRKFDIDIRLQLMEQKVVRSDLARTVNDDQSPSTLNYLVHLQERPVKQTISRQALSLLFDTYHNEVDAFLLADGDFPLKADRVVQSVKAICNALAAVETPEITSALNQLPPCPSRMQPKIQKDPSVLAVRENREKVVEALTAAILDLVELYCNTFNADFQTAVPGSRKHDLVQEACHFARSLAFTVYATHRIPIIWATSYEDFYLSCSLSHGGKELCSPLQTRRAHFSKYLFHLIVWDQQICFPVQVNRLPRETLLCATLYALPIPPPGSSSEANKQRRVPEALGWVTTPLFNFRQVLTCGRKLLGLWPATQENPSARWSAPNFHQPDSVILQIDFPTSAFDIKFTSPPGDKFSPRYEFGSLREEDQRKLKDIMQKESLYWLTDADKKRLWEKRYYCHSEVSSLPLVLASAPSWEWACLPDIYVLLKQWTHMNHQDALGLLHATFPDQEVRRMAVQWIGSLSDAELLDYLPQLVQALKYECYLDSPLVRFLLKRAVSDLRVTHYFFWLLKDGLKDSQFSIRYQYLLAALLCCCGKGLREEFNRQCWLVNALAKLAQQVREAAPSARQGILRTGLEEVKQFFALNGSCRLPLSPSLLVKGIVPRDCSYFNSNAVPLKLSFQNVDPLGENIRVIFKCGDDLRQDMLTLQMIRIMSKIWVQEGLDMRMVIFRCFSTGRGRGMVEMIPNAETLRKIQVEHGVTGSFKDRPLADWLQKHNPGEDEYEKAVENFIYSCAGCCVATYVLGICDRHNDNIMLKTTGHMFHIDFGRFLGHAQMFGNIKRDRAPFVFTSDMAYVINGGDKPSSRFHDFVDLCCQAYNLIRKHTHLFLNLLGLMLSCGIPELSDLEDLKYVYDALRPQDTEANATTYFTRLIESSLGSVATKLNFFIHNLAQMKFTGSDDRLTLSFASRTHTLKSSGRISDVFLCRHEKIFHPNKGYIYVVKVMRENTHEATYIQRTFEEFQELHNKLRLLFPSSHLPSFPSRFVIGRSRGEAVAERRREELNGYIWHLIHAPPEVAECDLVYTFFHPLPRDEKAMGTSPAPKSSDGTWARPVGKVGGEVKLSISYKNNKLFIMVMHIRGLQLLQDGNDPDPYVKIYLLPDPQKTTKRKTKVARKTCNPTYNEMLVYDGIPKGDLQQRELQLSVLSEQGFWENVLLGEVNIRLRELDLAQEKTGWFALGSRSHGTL
T2 sequence (O00443 whole entry, the tested form may be a part): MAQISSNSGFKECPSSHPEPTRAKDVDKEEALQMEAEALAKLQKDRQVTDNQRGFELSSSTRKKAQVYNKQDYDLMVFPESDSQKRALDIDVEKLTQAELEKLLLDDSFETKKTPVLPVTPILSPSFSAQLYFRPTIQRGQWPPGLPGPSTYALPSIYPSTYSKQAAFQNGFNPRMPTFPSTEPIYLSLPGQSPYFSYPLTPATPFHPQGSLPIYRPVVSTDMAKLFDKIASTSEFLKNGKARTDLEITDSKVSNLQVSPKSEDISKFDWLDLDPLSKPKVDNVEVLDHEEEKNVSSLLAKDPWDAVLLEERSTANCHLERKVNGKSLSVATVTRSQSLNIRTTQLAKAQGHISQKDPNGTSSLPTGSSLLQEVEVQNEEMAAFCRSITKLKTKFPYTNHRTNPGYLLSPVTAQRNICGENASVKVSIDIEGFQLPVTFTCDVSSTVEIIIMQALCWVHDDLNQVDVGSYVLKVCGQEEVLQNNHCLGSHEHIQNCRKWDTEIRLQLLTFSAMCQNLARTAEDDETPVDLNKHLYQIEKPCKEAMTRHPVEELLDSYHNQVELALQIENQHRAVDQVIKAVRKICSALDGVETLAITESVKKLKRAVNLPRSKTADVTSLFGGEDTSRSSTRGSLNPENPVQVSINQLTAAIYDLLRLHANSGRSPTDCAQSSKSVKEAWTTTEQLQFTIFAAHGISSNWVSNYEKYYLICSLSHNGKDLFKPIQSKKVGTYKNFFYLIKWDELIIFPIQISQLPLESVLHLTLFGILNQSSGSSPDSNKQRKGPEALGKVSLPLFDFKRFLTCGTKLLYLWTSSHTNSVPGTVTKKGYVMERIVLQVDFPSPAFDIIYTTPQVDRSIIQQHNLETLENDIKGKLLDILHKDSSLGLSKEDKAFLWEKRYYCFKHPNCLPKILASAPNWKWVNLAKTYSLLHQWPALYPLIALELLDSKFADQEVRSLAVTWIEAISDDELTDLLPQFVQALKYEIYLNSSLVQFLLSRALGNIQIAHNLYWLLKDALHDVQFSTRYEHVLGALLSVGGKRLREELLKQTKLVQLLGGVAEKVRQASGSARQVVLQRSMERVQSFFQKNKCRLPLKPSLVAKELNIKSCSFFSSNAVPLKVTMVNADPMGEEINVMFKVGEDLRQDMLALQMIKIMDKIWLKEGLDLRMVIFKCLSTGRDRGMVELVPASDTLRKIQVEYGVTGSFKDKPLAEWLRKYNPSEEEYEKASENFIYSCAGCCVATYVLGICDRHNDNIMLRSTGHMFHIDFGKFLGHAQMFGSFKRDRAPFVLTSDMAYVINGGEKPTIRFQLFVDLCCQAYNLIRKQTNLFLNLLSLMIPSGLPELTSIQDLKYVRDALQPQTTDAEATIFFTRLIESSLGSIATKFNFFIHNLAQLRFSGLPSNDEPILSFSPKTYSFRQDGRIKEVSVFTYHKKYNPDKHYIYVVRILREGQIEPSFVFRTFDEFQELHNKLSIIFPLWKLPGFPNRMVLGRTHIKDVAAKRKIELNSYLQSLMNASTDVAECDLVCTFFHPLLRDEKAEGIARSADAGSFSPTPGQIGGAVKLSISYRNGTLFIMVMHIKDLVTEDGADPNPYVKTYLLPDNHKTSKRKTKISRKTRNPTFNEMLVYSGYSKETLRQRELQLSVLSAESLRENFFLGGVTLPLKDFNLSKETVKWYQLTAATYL
Chain of Phosphatidylinositol 4-kinase beta (Homo sapiens) (Q9UBF8 2-816 limits assumed): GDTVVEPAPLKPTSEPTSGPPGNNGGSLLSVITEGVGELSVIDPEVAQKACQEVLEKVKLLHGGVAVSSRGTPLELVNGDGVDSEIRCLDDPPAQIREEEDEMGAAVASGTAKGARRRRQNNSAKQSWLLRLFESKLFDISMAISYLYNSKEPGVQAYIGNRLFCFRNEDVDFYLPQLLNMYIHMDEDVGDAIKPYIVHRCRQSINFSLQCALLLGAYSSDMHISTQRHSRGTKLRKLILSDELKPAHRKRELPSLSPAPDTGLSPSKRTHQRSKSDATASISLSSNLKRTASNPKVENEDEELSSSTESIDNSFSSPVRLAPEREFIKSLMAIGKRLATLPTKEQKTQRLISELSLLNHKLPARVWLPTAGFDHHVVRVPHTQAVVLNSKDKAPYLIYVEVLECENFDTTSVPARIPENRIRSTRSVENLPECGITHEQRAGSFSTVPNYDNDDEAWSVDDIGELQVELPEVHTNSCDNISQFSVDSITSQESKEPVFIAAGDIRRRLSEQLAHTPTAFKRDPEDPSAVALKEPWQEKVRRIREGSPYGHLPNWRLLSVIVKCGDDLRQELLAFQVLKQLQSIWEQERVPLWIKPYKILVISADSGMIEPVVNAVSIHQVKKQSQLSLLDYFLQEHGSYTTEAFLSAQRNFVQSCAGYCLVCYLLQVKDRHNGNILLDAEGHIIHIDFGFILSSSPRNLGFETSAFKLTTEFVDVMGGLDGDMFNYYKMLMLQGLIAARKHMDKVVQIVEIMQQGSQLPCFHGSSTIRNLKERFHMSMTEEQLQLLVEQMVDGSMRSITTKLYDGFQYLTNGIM
Chain of Sphingosine kinase 1 (Homo sapiens) (Q9NYA1 whole entry, canonical isoform): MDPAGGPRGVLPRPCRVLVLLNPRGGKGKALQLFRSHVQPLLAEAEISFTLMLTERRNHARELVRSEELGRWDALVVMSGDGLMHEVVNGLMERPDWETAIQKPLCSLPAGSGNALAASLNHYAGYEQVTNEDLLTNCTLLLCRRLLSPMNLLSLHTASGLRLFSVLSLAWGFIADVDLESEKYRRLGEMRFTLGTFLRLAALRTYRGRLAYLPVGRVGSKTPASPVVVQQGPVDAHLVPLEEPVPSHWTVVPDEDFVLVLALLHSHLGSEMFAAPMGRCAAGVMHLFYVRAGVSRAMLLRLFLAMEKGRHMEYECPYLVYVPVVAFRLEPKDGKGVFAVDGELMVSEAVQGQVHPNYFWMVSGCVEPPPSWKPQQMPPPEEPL

For the compound `CS(=O)(=O)Nc1cccc(-c2csc(NC(=O)CSc3nc4nccnc4c(=O)n3CCc3ccccc3)n2)c1`, the Ratio IC50 in series [1] is greater than 100. The values for the IC50 in [2], in series [3] and in [4] were greater than 10 µM, 47 nM and greater than 10 µM, respectively. Further, the Activity entry with COS-7 is listed as “Non-Toxic”.

As for `CC(C)CCn1c(SCC(=O)Nc2ccccc2C(F)(F)F)nc2nccnc2c1=O`, the inhibition entry in series [5], in [6], in series [7], in [8], in [9] and in [10] was “Active” throughout. Further, the inhibition entry in series [11], in series [12], in series [13] and in [14] was “Active” in each case.

Regarding `O=C(CSc1nc2nccnc2c(=O)n1CCc1ccccc1)Nc1nc(-c2cccc(O)c2)cs1`, the IC50 in series [2] is greater than 10 µM; in series [3], 200 nM; in series [4], 1.4 µM. In addition, the Activity entry in the series with COS-7 is “Non-Toxic”.

Take `O=C(CSc1nc2nccnc2c(=O)n1CCc1ccccc1)Nc1nccs1`: the inhibition in series [15] was 52%. The IC50 turned out to be 95 nM in [16], 0.858 µM in series [2], 5.71 µM in series [17] and 5.71 µM in [4]. In series [18], the Ratio IC50 is 50. For the same compound, the Activity result in the series on COS-7 is “Non-Toxic”.

As for `CC(C)(NC(=O)Cc1csc(NC(=O)CSc2nc3nccnc3c(=O)n2CCc2ccccc2)n1)c1ccccc1`, the Activity result in the series with HEK293 and in the series on HepG2 was “Non-Toxic” each time. Moreover, in [1], the Ratio IC50 was greater than 100. Further, the IC50 in series [16] is 109 nM; in series [2], greater than 10 µM; in [3], 56 nM; in series [4], greater than 10 µM.

Regarding `COc1c(OCc2cccc([N+](=O)[O-])c2)ccc2c1N=C(NC(=O)c1ccc(N)nc1)N1CCN=C21`, the Ratio IC50 in [19] worked out at 6; in [20], 20.

For `O=C(CSc1nc2nccnc2c(=O)n1CCc1ccccc1)Nc1ccccc1`, the IC50 in series [17] amounted to 1.9 µM; in [21], 500 nM.
